Like-named read-outs stand apart in the source and are kept apart here.
Experiments:
Format in all cases: cell-based
[1] = molecular target: T1, human TLR9 (Homo sapiens, UniProt Q9NR96); assay: TLR9 inhibition reporter assay (HEK-Blue cells, secreted embryonic alkaline phosphatase reporter)
T1 construct: host or cells: HEK-Blue cells (HEK293-derived reporter line)
T1 sequence (Q9NR96 26-1032): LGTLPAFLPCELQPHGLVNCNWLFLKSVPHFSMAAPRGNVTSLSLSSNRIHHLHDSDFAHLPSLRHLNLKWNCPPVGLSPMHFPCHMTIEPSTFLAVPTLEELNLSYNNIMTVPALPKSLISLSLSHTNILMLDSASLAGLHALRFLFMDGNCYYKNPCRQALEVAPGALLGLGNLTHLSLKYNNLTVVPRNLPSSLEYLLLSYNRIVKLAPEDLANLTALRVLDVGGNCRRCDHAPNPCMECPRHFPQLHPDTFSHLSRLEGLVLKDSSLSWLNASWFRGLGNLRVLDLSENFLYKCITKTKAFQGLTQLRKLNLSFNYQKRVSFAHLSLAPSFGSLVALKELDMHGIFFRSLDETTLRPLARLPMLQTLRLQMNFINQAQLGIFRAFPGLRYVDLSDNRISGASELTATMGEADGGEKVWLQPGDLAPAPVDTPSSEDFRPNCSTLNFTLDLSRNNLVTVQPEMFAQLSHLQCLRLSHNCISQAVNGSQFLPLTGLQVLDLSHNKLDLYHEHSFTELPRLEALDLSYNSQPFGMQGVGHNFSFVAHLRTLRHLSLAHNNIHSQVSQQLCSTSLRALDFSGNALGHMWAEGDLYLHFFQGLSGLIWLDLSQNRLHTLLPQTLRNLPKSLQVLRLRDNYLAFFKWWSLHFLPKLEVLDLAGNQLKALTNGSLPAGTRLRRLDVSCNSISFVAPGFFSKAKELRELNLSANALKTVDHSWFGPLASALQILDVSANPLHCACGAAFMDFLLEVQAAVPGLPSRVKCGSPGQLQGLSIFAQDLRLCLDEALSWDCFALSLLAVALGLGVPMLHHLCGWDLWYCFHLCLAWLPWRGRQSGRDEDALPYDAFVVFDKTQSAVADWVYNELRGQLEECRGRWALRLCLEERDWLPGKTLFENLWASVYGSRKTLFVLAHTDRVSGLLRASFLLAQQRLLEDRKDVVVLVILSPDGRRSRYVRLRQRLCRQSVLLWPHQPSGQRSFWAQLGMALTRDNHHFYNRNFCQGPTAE
How it was run: (§1)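 Read-out is SEAP colour from HEK-Blue Detection medium after 22 h at 37 °C, converted to percent inhibition between agonist-plus-DMSO and reference-inhibitor wells. Receptor-overexpressing HEK-Blue cells received compound over 0.05 nM–50 μM for 30 min before agonist: gardiquimod 7.5 μM for TLR7, R848 15.9 μM for TLR8, ODN2006 5 nM for TLR9.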

[2] = molecular target: T2, human TLR7 (Homo sapiens, UniProt Q9NYK1); assay: TLR7 inhibition reporter assay (HEK-Blue cells, secreted embryonic alkaline phosphatase reporter); details: HEK-Blue cells overexpressing human TLR7, stimulated with gardiquimod 7.5 μM; read-out: TLR 7 IC50
T2 construct: host or cells: HEK-Blue cells (HEK293-derived reporter line)
T2 sequence (Q9NYK1 27-1049): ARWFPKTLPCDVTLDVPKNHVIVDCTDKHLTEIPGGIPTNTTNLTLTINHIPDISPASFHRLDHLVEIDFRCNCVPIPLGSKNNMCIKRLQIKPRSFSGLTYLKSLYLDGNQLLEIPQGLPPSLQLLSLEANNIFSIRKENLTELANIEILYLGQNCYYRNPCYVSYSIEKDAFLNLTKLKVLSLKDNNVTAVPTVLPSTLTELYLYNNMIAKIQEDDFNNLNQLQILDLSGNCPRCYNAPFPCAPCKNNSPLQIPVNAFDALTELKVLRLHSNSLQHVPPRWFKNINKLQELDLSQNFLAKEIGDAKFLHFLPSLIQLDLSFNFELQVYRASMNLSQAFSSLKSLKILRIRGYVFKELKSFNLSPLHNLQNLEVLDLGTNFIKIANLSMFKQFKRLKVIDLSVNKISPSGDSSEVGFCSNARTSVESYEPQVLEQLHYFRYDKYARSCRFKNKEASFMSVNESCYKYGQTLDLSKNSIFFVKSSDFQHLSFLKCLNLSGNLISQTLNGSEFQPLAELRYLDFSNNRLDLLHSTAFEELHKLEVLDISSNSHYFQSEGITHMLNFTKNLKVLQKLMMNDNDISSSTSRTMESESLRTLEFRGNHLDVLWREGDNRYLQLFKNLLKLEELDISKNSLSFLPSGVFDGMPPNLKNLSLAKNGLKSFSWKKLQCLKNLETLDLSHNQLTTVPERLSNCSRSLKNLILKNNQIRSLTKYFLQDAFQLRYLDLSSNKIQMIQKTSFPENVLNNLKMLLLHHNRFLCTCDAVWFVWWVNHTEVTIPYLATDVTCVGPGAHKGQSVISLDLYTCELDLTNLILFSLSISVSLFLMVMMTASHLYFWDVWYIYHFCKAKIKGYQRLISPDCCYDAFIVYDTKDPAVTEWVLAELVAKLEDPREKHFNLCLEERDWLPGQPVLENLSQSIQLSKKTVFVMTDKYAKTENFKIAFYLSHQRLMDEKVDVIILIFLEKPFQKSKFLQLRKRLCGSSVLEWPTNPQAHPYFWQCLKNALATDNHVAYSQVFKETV
How it was run: as §1

[3] = molecular target: T3, human TLR8 (Homo sapiens, UniProt Q9NR97); assay: TLR8 inhibition reporter assay (HEK-Blue cells, secreted embryonic alkaline phosphatase reporter); details: HEK-Blue cells overexpressing human TLR8, stimulated with R848 15.9 μM; read-out: TLR 8 IC50
T3 construct: host or cells: HEK-Blue cells (HEK293-derived reporter line)
T3 sequence (Q9NR97 27-1041): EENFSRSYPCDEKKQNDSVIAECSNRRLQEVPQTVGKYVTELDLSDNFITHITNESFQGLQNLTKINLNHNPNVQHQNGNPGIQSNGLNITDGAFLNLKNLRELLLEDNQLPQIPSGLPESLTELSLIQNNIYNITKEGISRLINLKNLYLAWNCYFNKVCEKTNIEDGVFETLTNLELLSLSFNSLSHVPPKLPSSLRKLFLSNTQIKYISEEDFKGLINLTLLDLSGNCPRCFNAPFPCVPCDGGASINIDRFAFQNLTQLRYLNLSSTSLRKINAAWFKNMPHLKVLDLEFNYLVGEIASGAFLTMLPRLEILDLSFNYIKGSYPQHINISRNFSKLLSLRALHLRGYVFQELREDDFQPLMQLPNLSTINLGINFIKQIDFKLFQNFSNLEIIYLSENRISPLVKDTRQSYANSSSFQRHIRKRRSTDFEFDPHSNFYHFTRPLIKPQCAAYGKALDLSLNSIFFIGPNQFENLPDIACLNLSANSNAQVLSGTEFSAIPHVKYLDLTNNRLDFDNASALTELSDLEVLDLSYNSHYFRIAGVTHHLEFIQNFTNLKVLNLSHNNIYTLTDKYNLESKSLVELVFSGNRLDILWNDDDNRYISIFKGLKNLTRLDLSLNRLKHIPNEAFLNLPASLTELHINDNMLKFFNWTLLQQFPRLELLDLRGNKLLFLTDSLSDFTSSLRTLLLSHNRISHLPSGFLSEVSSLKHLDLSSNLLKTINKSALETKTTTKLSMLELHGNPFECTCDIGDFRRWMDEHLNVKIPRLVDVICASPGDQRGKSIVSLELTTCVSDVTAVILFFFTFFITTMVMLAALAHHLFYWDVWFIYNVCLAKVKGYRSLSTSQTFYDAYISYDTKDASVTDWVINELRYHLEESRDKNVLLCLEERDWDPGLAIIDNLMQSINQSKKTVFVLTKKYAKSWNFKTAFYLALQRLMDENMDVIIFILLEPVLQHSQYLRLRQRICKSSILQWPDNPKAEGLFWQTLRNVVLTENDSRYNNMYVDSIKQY
How it was run: as §1

[4] = HEK-Blue cells overexpressing human TLR9, stimulated with ODN2006 5 nM, read-out: TLR 9 IC50
[5] = HEK-Blue human TLR9 reporter cells
[6] = HEK-Blue cells overexpressing human TLR9, stimulated with ODN2006 5 nM, 22 hour incubation, reporter readout

| IC50 [1] | IC50 [1, 4] | IC50 [2] | IC50 [3] | IC50 [1, 5] | IC50 [1, 6] | Compound |
| --- | --- | --- | --- | --- | --- | --- |
| 850 nM | 850 nM | > 50000 nM | > 50000 nM |  |  | CC(C)CN1CCC(N2CCC(c3ccc4c(nc(-c5ccc(S(C)(=O)=O)cc5)n4C)c3F)CC2)CC1 [Example 184, 4-fluoro-5-(1′-isobutyl-[1,4′-bipiperidin]-4-yl)-1-methyl-2-(4-(methylsulfonyl)phenyl)-1H-benzo[d]imidazole] |
| 130 nM | 133 nM | 35600 nM | > 50000 nM |  |  | Cn1c(-c2ccc(S(C)(=O)=O)cc2)nc2cc(F)c(C3CCN(C4CCN(C5CC5)CC4)CC3)cc21 [Example 222, 6-(1′-cyclopropyl-[1,4′-bipiperidin]-4-yl)-5-fluoro-1-methyl-2-(4-(methylsulfonyl)phenyl)-1H-benzo[d]imidazole] |
|  | 130 nM | > 50000 nM | > 50000 nM | 130 nM |  | Cc1cc(C2CCN(C3CC4CCC(C3)N4CC3CC3)CC2)cc2[nH]c(-c3ccc(S(C)(=O)=O)cc3)nc12 (stereo not shown) [Example 335, 6-(1-(8-(cyclopropylmethyl)-8-azabicyclo[3.2.1]octan-3-yl)piperidin-4-yl)-4-methyl-2-(4-(methylsulfonyl)phenyl)-1H-benzo[d]imidazole] |
| 1100 nM | 1060 nM | > 50000 nM | > 50000 nM |  |  | Cn1c(-c2ccc(S(C)(=O)=O)cc2)nc2cc(C3CCN(C4CCN(C5CCOCC5)CC4)CC3)c(F)cc21 [Example 245, 6-fluoro-1-methyl-2-(4-(methylsulfonyl)phenyl)-5-(1′-(tetrahydro-2H-pyran-4-yl)-[1,4′-bipiperidin]-4-yl)-1H-benzo[d]imidazole] |
|  | 16 nM | 100 nM | 8200 nM | 16 nM |  | COc1cc(-c2nc3c(C)cc(C4CCN(C5CCN(CC(C)C)CC5)CC4)cc3n2C)cn2ncnc12 [Example 353, 6-(6-(1′-isobutyl-[1,4′-bipiperidin]-4-yl)-1,4-dimethyl-1H-benzo[d]imidazol-2-yl)-8-methoxy-[1,2,4]triazolo[1,5-a]pyridine] |
| 270 nM | 165 nM | > 50000 nM | > 50000 nM |  |  | Cn1c(-c2ccc(S(C)(=O)=O)cc2)nc2cc(C3CCN(C4CC5CCC(C4)N5C4CCOCC4)CC3)cc(F)c21 (stereo not shown) [Example 211, 7-fluoro-1-methyl-2-(4-(methylsulfonyl)phenyl)-5-(1-(8-(tetrahydro-2H-pyran-4-yl)-8-azabicyclo[3.2.1]octan-3-yl)piperidin-4-yl)-1H-benzo[d]imidazole] |
|  | 11 nM | 200 nM | 3100 nM | 11 nM |  | COc1cc(-c2nc3c(C)cc(C4CCN(C5CC6CCC(C5)N6C5CCC5)CC4)cc3n2C)cn2ncnc12 (single isomer, unassigned) [Example 355, 6-(6-(1-(8-cyclobutyl-8-azabicyclo[3.2.1]octan-3-yl)piperidin-4-yl)-1,4-dimethyl-1H-benzo[d]imidazol-2-yl)-8-methoxy-[1,2,4]triazolo[1,5-a]pyridine] |
|  | 11.2 nM | 6600 nM | > 50000 nM |  | 110 nM | COc1ccc(-c2nc3ccc(C4CCN(C5CCN(C6CC6)CC5)CC4)cc3[nH]2)cc1OC [Example 29, 6-(1′-cyclopropyl-[1,4′-bipiperidin]-4-yl)-2-(3,4-dimethoxyphenyl)-1H-benzo[d]imidazole] |
|  |  | 6800 nM | 840 nM |  | 250 nM | COc1ccc(-c2nc3cc(C4CCN(C5CCN(C(C)C)CC5)CC4)ccc3n2C)cc1OC [Example 5, 2-(3,4-dimethoxyphenyl)-5-(1′-isopropyl-[1,4′-bipiperidin]-4-yl)-1-methyl-1H-benzo[d]imidazole] |
| 170 nM | 167 nM | 1500 nM | > 50000 nM |  |  | COCCN1C2CCC1CC(N1CCC(c3ccc4nc(-c5ccc(S(C)(=O)=O)cc5)n(C)c4c3F)CC1)C2 (single isomer, unassigned) [Example 276, 7-fluoro-6-(1-(8-(2-methoxyethyl)-8-azabicyclo[3.2.1]octan-3-yl)piperidin-4-yl)-1-methyl-2-(4-(methylsulfonyl)phenyl)-1H-benzo[d]imidazole] |
|  | 327 nM | 300 nM | 1800 nM |  | 330 nM | CCN1CCCN(Cc2ccc(-c3cc(C)c4nc(-c5ccc(S(C)(=O)=O)cc5)n(C)c4c3)cc2F)CC1 [Example 389, 6-(4-((4-ethyl-1,4-diazepan-1-yl)methyl)-3-fluorophenyl)-1,4-dimethyl-2-(4-(methylsulfonyl)phenyl)-1H-benzo[d]imidazole] |
